This data set can be described thus: Hydroxyapatite Assay (hydroxyapatite adsorption chromatography). The class given is physicochemical. The following applies: corrected retention K=(retention time-void time)/void on TSK-Gel HA 1000 HPLC column; linear gradient 10 mM to 500 mM sodium phosphate, 0.15 N NaCl, pH 6.8. From the text: Hydroxyapatite is the principal mineral component of bone. Hydroxyapatite adsorption chromatography is used as an assay to evaluate the bone-targeting potential of both individual bone-targeting moieties (“monomers”) and of pharmaceuticals incorporating bone-targeting groups.
The rentention time of the compound is expressed in terms of K=(retention time-void time)/void. This K value is corrected using two reference compounds to correct from inter-column and inter-system variation to obtain a K′ value.
Reference Compounds: K′ values were determined for known bone targeted compounds, the bisphosphonate, alendronate and tetracycline.

Turning to `NCCCC(O)(P(=O)(O)O)P(=O)(O)O` [Alendronate, alendronate], the “K′ value” is 3.7.

Values taken from US20030100572A1, “Novel pyridopyrimidones and uses thereof” (ARIAD PHARMACEUTICALS,INC., priority 2001, published 2003).
